From patent US10633363B2, “EPAC1 activators as HIV latency reversal agents (LRA)” (The Board of Regents of The University of Texas System, priority 2017, dated 2020)
“Also recorded” adds a separate entry of the source.

What was measured:
[1] = tested on: EPAC (EPAC1) in J-lat cells; assay: 007-AM-stimulated GFP expression in J-lat cells after CRISPR/Cas9 knock out of EPAC; type: cell-based
Text: FIG. 3F. Functional involvement of EPAC in 007-AM stimulated HIV reactivation in J-lat cells.

[2] = tested on: latent HIV in J-lat cells; assay: Activation of GFP expression (latent HIV reactivation) in J-lat cells; type: cell-based; conditions: for GFP expression in J-lat cells: flow cytometry, 10 M (so in the source); for Ability to stimulate GFP expression in J-lat cells compared with ZL0568 (SAR): 10 μM
Protocol: FIG. 2A. Assessment of compound ZL0568, an exemplary embodiment of the invention, for the ability to stimulate GFP expression in J-lat cells. GFP fluorescence intensity was measured by microplate reader.
FIG. 2C. Dose-dependent activation of GFP expression in J-lat cells by ZL0568 measured by flow cytometry.
Dose-dependent activation of GFP expression by ZL0568 in J-lat cells was confirmed by flow cytometric analysis with an EC50 value of 8 μM (in DMSO) (FIG. 2C-D). […] See e.g., FIG. 8A-E.
Specificity and structure-activity relationship (SAR) for ZL0568 was determined by synthesizing and testing four analogues (ZL0696, ZL0697, ZL0699 and ZL06100; 10 μM).

latent HIV in NNTC PBMC [3] = assay: Activation of latent HIV gene expression (3'LTR PCR) in PBMC of ART-suppressed, aviremic HIV-infected subjects (NNTC); type: cell-based; conditions: for HIV gene expression, PCR quantification of HIV 3'LTR vs NC: fresh and frozen PBMC of one NNTC subject, 48 hours, ZL0568 10 M (so in the source)
Protocol: FIG. 6A. Relative HIV gene expression in one representative PBMC following different treatments. Fresh and cryopreserved PBMC of the same donor were compared.
FIG. 6C. Relative HIV gene expression in multiple BMCs (n=8) after treatments were summarized.
The ability of compound ZL0568 to activate latent HIV in PBMC of ART-suppressed, aviremic HIV-infected subjects was tested. PBMC samples were obtained from the well-established HIV infection cohort from the National NeuroAIDS Tissue Consortium (NNTC) with (66, 67). First, feasibility of using NNTC's cryopreserved PBMC in the experiments was explored by comparing the results from fresh and frozen PBMC of the same subject. […] Thus, fresh and cryopreserved PBMC from a representative NNTC subject (ID: 8400337177) were stimulated with compound ZL0568 (10 M) as compared to stimulation with mock (NC) or positive controls (JQ1, Prostratin and PMA; concentrations of positive controls were used as previously reported (21, 25)).
(§1) HIV release in the supernatants of PBMC at 72 hours after treatments using the 1G5 luciferase reporter assay (68, 69) was measured and very similar results were found (FIG. 6B). We noted that although the levels of HIV activation in frozen PBMC were generally lower than those in fresh PBMC, the differences among different treatments were consistently detected (FIG. 6A-B), supporting the feasibility of using NNTC's cryopreserved PBMCs in our system.
(§2) Compound ZL0568 was further tested in multiple NNTC's donor PBMCs (n=8) for HIV gene activation (FIG. 6C) as well as viral production (FIG. 6D).

latent HIV in NNTC PBMC [4] = assay: HIV release in supernatants of treated PBMC, 1G5 luciferase reporter assay; type: cell-based; conditions: multiple NNTC donor PBMCs (n=8), p<0.01
Protocol: FIG. 6B. Relative viral release in one representative PBMC following different treatments. Fresh and cryopreserved PBMC of the same donor were compared.
FIG. 6D. HIV release in supernatants of treated PBMC was measured by 1G5 reporter luciferase assay and compared between ZL0568 and NC.
as §1, §2

[5] = Cellular toxicity on J-lat cells (% viable cells); type: cell-based; conditions: stated for J-lat and human PBMC together; cell type not specified; read-out: cytotoxicity CC50
Protocol: (§3) FIG. 8A. Cellular toxicity of ZL0568 on J-lat cells. Toxicity was measured as % viable cells at Day 1, 2 and 3 after stimulation at various concentrations.
(§4) Cellular toxicity profile of ZL0568 and its effects on human T cells was evaluated. […] This possibility was precluded since apoptosis was recently shown to be associated with HIV reactivation (68).

J-lat cells = assay: Cellular toxicity on J-lat cells (% viable cells); type: cell-based; conditions: J-lat cells; 40 μM
Protocol: as §3, §4

T cells [6] = assay: T-cell activation marker expression (CD25, CD38, CD69, HLA-DR) by flow cytometry; type: cell-based, human; conditions: 10 μM
Protocol: FIG. 8D. T-cell activation by ZL0568. Activation marker expression (CD25, CD38, CD69, HLA-DR) on T-cells was measured flow cytometry and compared between ZL0568 (10 uM) and NC.
as §4

HIV in RV21 PBMC = assay: Activation of HIV gene expression in PBMC of ART-naive, viremic HIV-infected individuals (RV21); type: cell-based
Protocol: FIG. 5A Activation of HIV gene expression (3′ LTR) in a representative RV21 PBMC on Day 1, 2 and 5 after stimulation. The data are shown as fold change to NC.
A significant limitation for some existing LRAs (e.g. HDACi & BETi) is related to their limited efficacy to activate latent HIV in primary cells (16, 17, 19-21). Whether or not our compound ZL0568 can stimulate HIV gene expression in human PBMC from ART-naïve, viremic HIV-infected individuals was assessed using cells from the RV21, an ART-naïve, HIV infection cohort at the Military HIV Research Program (MHRP). See e.g., Liu F, et al. Sequential Dysfunction and Progressive Depletion of Candida albicans-Specific CD4 T Cell Response in HIV-1 Infection. PLoS Pathog 12(6):e1005663 (2016). A widely-used method to detect HIV transcription in cells from infected individuals involves measurement of RNAs containing HIV gag sequences. […] See e.g., Bullen C K, Laird G M, Durand C M, Siliciano J D, & Siliciano R F, New ex vivo approaches distinguish effective and ineffective single agents for reversing HIV-1 latency in vivo. Nat Med 20(4):425-429 (2014).
Therefore, in addition to Gag, a new PCR assay, established by the Siliciano group, specific for intracellular HIV mRNA using a primer/probe set that detects the 3′-sequence common to all correctly terminated HIV RNAs was employed. […]

[7] = tested on: latent HIV in human monocytic U1 cells; assay: Activation of latent HIV in U1 cells, intracellular HIV p24 staining by flow cytometry; type: cell-based; conditions: various concentrations, 48 hours
Protocol: FIG. 4. Activation of latent HIV by compound ZL0568 in U1 cells. U1 cells were stimulated with various concentrations of compound ZL0568 as indicated or mock-stimulated (NC) for 48 hours. Reactivation of latent HIV were examined based on intracellular HIV p24 staining (p24%) by flow cytometry.
Whether or not compound ZL0568, an exemplary embodiment of the invention, can activate latent HIV in human monocytic U1 cells was evaluated. In particular, U1 cells were stimulated with various concentrations of ZL0568 or mock DMSO (NC). Reactivation of latent HIV was measured based on intracellular HIV p24 staining by flow cytometry.

T cells [8] = assay: Caspase-3 and Caspase-1 expression in T cells; type: cell-based, human; conditions: 24 hours, vs NC
Protocol: FIG. 8C. Caspase-3 and Caspase-1 expression in T cells with ZL0568 stimulation as compared to NC (24 hours).
as §4

T cells [9] = assay: Expression of cytokines in T cells by intracellular cytokine staining; type: cell-based, human; conditions: 10 uM, 24 hours
Protocol: FIG. 8E. Expression of cytokines (% IFN-r, IL-2, MIP-1b or IL-17) in T cells between ZL0568 treatment (10 uM) and NC (24 hours), measured by intracellular cytokine staining.
as §4

human PBMC = assay: Cellular toxicity on human PBMC (% viable cells); type: cell-based; conditions: 40 μM
Protocol: FIG. 8B. Cellular toxicity of ZL0568 on human PBMC. Toxicity was measured as % viable cells at Day 1, 2 and 3 after stimulation at various concentrations.
as §4

## CO[C@@H]1[C@@H]2OP(=O)(OCOC(C)=O)OC[C@H]2O[C@H]1n1c(Sc2ccc(Cl)cc2)nc2c(N)ncnc21 (stereo partly shown) [007-AM, reference compound]
[1]
  007-AM-stimulated GFP expression after ablation of EPAC: marked decrease
[2]
  GFP expression / HIV reactivation in J-lat cells (in words): significant HIV reactivation
  GFP expression in J-lat cells: 12.8%

## CC(C)(C)c1cc(C(=O)/C(C#N)=N/Nc2cccc(Cl)c2)no1 [ESI-09, reference compound]
[2]
  GFP expression / HIV reactivation in J-lat cells (in words): no HIV activation effect; also recorded: no GFP-activating effect

## Cc1sc2c(c1C)C(c1ccc(Cl)cc1)=N[C@@H](CC(=O)OC(C)(C)C)c1nnc(C)n1-2 [JQ1, reference compound]
[2]
  GFP expression in J-lat cells: 8.97%
Latent HIV in NNTC PBMC [3]
  HIV gene expression, PCR quantification of HIV 3'LTR vs NC: failed to do so

## CCCCCCCCCCCCCC(=O)O[C@@H]1[C@@H](C)[C@@]2(O)[C@@H](C=C(CO)C[C@]3(O)C(=O)C(C)=C[C@@H]23)[C@@H]2C(C)(C)[C@]12OC(C)=O [PMA]
Latent HIV in NNTC PBMC [3]
  HIV gene expression, PCR quantification of HIV 3'LTR vs NC: markedly activated HIV gene expression

## CC(=O)O[C@@]12C[C@@H](C)[C@@]3(O)[C@@H](C=C(CO)C[C@]4(O)C(=O)C(C)=C[C@@H]34)[C@@H]1C2(C)C [Prostratin]
Latent HIV in NNTC PBMC [3]
  HIV gene expression, PCR quantification of HIV 3'LTR vs NC: markedly activated HIV gene expression

## Cn1cc(C(=O)/C(C#N)=N/Nc2ccc(Cl)c(C(F)(F)F)c2)c2ccccc21 [ZL0568, (E)-N-(4-chloro-3-(trifluoromethyl)phenyl)-2-(1-methyl-1H-indol-3-yl)-2-oxoacetohydrazonoyl Cyanide]
[2]; Human immunodeficiency virus 1, flow cytometric analysis, in DMSO, read-out: EC50, dose-dependent activation of GFP expression in J-lat cells
  EC50: 8 µM
[2]
  GFP expression / HIV reactivation in J-lat cells (in words): significant GFP expression
  GFP expression in J-lat cells: 21.7%
Latent HIV in NNTC PBMC [4]
  Viral production vs NC: enhanced HIV activation
[5]
  CC50: 75 µM
J-lat cells
  Cellular toxicity, % viable cells: limited cellular toxicity
T cells [6]
  CD69 and HLA-DR expression: no significant increase
T cells [6]; p<0.001
  T-cell activation, expression of CD25 and CD38: modest level of T-cell activation
HIV in RV21 PBMC; ART-naive RV21 PBMCs, Day 2, p<0.005
  HIV gene expression (3'LTR and Gag together) vs NC: could significantly activate HIV gene expression
HIV in RV21 PBMC; representative RV21 PBMC, 10 M (so in the source), Day 1, 2 and 5
  HIV 3'-LTR gene expression, time course: induced HIV 3′-TLR expression on Day 2 after stimulation, which became less significant on Day 5
[7]
  HIV reactivation in U1 cells based on p24 expression: could also stimulate HIV reactivation in U1 cells in a dose-dependent manner
T cells [8]
  Induction of cell death signals (caspase-3/caspase-1): no preferential induction of cell death signals
Latent HIV in NNTC PBMC [3]
  HIV gene expression, PCR quantification of HIV 3'LTR vs NC: significant HIV gene expression
Latent HIV in NNTC PBMC [3]; multiple NNTC donor PBMCs (n=8), p<0.01
  HIV gene activation vs NC: enhanced HIV activation
T cells [9]
  Expression of inflammatory cytokines in T cells (IFN-γ, IL-2, MIP-1b, IL-17): did not induce expression of inflammatory cytokines
Human PBMC
  Cellular toxicity, % viable cells: limited cellular toxicity

## Cn1cc(C(=O)/C(C#N)=N/Nc2ccccc2Cl)c2ccccc21 [ZL0696, (E)-N-(2-Chlorophenyl)-2-(1-methyl-1H-indol-3-yl)-2-oxoacetohydrazonoyl Cyanide]
[2]
  Ability to stimulate GFP expression in J-lat cells compared with ZL0568 (SAR): substantially abrogated the ability to stimulate GFP expression

## Cn1cc(C(=O)/C(C#N)=N/Nc2cccc(Cl)c2)c2ccccc21 [ZL0697, (E)-N-(3-Chlorophenyl)-2-(1-methyl-1H-indol-3-yl)-2-oxoacetohydrazonoyl Cyanide]
[2]
  Ability to stimulate GFP expression in J-lat cells compared with ZL0568 (SAR): substantially abrogated the ability to stimulate GFP expression

## Cn1cc(C(=O)/C(C#N)=N/Nc2cc(Cl)cc(Cl)c2)c2ccccc21 [ZL0699, (E)-N-(3,5-Dichlorophenyl)-2-(1-methyl-1H-indol-3-yl)-2-oxoacetohydrazonoyl Cyanide]
[2]
  Ability to stimulate GFP expression in J-lat cells compared with ZL0568 (SAR): substantially abrogated the ability to stimulate GFP expression

## Cn1cc(C(=O)/C(C#N)=N/Nc2ccc3c(c2)CCC(=O)N3)c2ccccc21 [ZL06100, (E)-2-(1-Methyl-1H-indol-3-yl)-2-oxo-N-(2-oxo-1,2,3,4-tetrahydroquinolin-6-yl)acetohydrazonoyl Cyanide]
[2]
  Ability to stimulate GFP expression in J-lat cells compared with ZL0568 (SAR): still maintained some potency
